The test deals with T1, Human glucocorticoid receptors (Homo sapiens, UniProt P04150).
T1 construct: made in house; host or cells: Sf9 insect cells, recombinant baculovirus (BAC-TO-BAC)
T1 sequence (P04150 1-777): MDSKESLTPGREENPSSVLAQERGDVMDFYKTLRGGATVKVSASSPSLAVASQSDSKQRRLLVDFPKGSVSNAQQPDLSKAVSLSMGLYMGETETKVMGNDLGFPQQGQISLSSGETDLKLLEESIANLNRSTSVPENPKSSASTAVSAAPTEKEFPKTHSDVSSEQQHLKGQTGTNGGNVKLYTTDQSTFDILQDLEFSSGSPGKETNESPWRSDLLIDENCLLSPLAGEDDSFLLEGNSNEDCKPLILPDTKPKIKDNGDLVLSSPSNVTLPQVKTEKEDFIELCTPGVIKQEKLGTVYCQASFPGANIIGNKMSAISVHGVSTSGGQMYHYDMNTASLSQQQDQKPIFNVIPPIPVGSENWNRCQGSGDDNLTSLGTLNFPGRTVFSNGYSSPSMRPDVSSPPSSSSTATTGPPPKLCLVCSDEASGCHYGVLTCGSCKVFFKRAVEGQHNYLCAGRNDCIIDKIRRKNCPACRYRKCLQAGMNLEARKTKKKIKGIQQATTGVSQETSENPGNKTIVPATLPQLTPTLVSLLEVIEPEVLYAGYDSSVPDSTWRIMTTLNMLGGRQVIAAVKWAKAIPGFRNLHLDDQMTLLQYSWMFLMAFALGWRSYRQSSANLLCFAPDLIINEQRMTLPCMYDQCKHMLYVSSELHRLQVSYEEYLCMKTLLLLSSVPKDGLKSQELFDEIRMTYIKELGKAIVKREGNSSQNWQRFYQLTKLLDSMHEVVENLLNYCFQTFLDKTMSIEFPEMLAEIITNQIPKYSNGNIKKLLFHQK
The test is described as follows: Radioligand filter binding assay, displacement of 3[H]-dexamethasone from hGR. Particulars: read-out: GR Binding (% Inhibition at 1.7 μM). The procedure, abridged: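 Recombinant hGR extract from baculovirus-infected Sf9 cells (final ~1 nM receptor) incubated with ³H-dexamethasone and test compound dilutions in duplicate, EDTA/phosphate pH 8 buffer with MTG, overnight (15-20 h) at +4° C. Bound label collected on PEI-treated GF/B filters and scintillation-counted; IC50 from four-parameter fit of corrected cpm.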
In general, inhibition refers to the drop in the measured response relative to a control, in per cent. Turning to `Cc1c(NS(C)(=O)=O)cccc1N(Cc1ccccc1)Cc1ccc(Oc2cccc(OCCCC(=O)N3CCC(C(=O)O)CC3)c2)cc1` [Example 280, 1-[4-(3-{4-[(benzyl{2-methyl-3-[(methylsulfonyl)amino]phenyl}amino)methyl]phenoxy}phenoxy)butanoyl]piperidine-4-carboxylic acid], the inhibition at 1.7 µM is 89.5%.
Regarding `Cc1c(NS(C)(=O)=O)cccc1N(Cc1ccccc1)Cc1ccc(Oc2cccc(OCCCC(=O)N3CCCCC3C(=O)O)c2)cc1` (stereo not shown) [Example 281, 1-[4-(3-{4-[(benzyl{2-methyl-3-[(methylsulfonyl)amino]phenyl}amino)methyl]phenoxy}phenoxy)butanoyl]piperidine-2-carboxylic acid], the inhibition at 1.7 µM worked out at 90%.
The figure for `Cc1c(NS(C)(=O)=O)cccc1N(Cc1ccccc1)Cc1ccc(Oc2cccc(OCCCC(=O)N3CCC[C@H]3C(=O)O)c2)cc1` [Example 282, 1-[4-(3-{4-[(benzyl{2-methyl-3-[(methylsulfonyl)amino]phenyl}amino)methyl]phenoxy}phenoxy)butanoyl]proline] is 89.9%; for `Cc1c(NS(C)(=O)=O)cccc1N(Cc1ccccc1)Cc1ccc(Oc2cccc(OCC3(C)COC3)c2)cc1` [Example 283, N-{3-[benzyl(4-{3-[(3-methyloxetan-3-yl)methoxy]phenoxy}benzyl)amino]-2-methylphenyl}methanesulfonamide] it is 89.7%; for `Cc1c(NS(C)(=O)=O)cccc1N(Cc1ccccc1)Cc1ccc(Oc2cccc(OCC3CC3C(=O)O)c2)cc1` (stereo not shown) [Example 284, 2-[(3-{4-[(benzyl{2-methyl-3-[(methylsulfonyl)amino]phenyl}amino)methyl]phenoxy}phenoxy)methyl]cyclopropanecarboxylic acid] it is 89.6%.
For `Cc1c(NS(C)(=O)=O)cccc1N(Cc1ccccc1)Cc1ccc(Oc2cccc(OC[C@H](O)CO)c2)cc1` [Example 285, N-(3-{benzyl[4-(3-{[(2R)-2,3-dihydroxypropyl]oxy}phenoxy)benzyl]amino}-2-methylphenyl)methanesulfonamide], the inhibition at 1.7 µM worked out at 89.7%.
To `Cc1c(NS(C)(=O)=O)cccc1N(Cc1ccccc1)Cc1ccc(Oc2cccc(OC3CCC(C(=O)O)CC3)c2)cc1` (stereo not shown) [Example 286, 4-(3-{4-[(benzyl{2-methyl-3-[(methylsulfonyl)amino]phenyl}amino)methyl]phenoxy}phenoxy)cyclohexanecarboxylic acid] belongs 92.6%; to `Cc1c(NS(C)(=O)=O)cccc1N(Cc1ccccc1)Cc1ccc(Oc2cccc(OC3CCOCC3)c2)cc1` [Example 287, N-[3-(benzyl{4-[3-(tetrahydro-2H-pyran-4-yloxy)phenoxy]benzyl}amino)-2-methylphenyl]methanesulfonamide], 89.2%; to `Cc1c(NS(C)(=O)=O)cccc1N(Cc1ccccc1)Cc1ccc(Oc2cccc(OC3CCOC3)c2)cc1` (stereo not shown) [Example 288, N-[3-(benzyl{4-[3-(tetrahydrofuran-3-yloxy)phenoxy]benzyl}amino)-2-methylphenyl]methanesulfonamide], 89.8%.
To `Cc1c(NS(C)(=O)=O)cccc1N(Cc1ccccc1)Cc1ccc(Oc2cccc(OC[C@@H]3CCCN3C)c2)cc1` [Example 289, N-(3-{benzyl[4-(3-{[(2S)-1-methylpyrrolidin-2-yl]methoxy}phenoxy)benzyl]amino}-2-methylphenyl)methanesulfonamide] belongs 87.8%; to `Cc1c(NS(C)(=O)=O)cccc1N(Cc1ccccc1)Cc1ccc(Oc2cccc(OCc3cccnc3)c2)cc1` [Example 290, N-[3-(benzyl{4-[3-(pyridin-3-ylmethoxy)phenoxy]benzyl}amino)-2-methylphenyl]methanesulfonamide], 89.1%; to `Cc1c(NS(C)(=O)=O)cccc1N(Cc1ccccc1)Cc1ccc(Oc2cccc(OC[C@@H]3CCCN3)c2)cc1` [Example 291, N-{3-[benzyl(4-{3-[(2S)-pyrrolidin-2-ylmethoxy]phenoxy}benzyl)amino]-2-methylphenyl}methanesulfonamide], 87.7%.
For the molecule `Cc1c(NS(C)(=O)=O)cccc1N(Cc1ccccc1)Cc1ccc(Oc2cccc(OC3CCN(C)C3)c2)cc1` (stereo not shown) [Example 292, N-{3-[benzyl(4-{3-[(1-methylpyrrolidin-3-yl)oxy]phenoxy}benzyl)amino]-2-methylphenyl}methanesulfonamide], the inhibition at 1.7 µM is 89.4%.
The figure for `Cc1c(NS(C)(=O)=O)cccc1N(Cc1ccc(Oc2ccc(Cl)c(OCC(=O)O)c2)cc1)Cc1ccccc1F` [Example 306, (2-chloro-5-(4-(((2-fluorobenzyl)(2-methyl-3-((methylsulfonyl)amino)phenyl)amino)methyl)phenoxy)phenoxy)acetic acid] is 97%; for `Cc1c(NS(C)(=O)=O)cccc1N(Cc1ccc(Oc2ccc(Cl)c(OCC(=O)O)c2)cc1)Cc1ccccc1Br` [Example 307, (5-(4-(((2-bromobenzyl)(2-methyl-3-((methylsulfonyl)amino)phenyl)amino)methyl)phenoxy)-2-chlorophenoxy)acetic acid] it is 97%; for `Cc1c(NS(C)(=O)=O)cccc1N(Cc1ccc(Br)cc1)Cc1ccc(Oc2ccc(Cl)c(OCC(=O)O)c2)cc1` [Example 308, (5-(4-(((4-bromobenzyl)(2-methyl-3-((methylsulfonyl)amino)phenyl)amino)methyl)phenoxy)-2-chlorophenoxy)acetic acid] it is 95.7%.
As for `Cc1c(NS(C)(=O)=O)cccc1N(Cc1ccc(Oc2ccc(Cl)c(OCC(=O)O)c2)cc1)Cc1ccc(Cl)cc1Cl` [Example 309, (2-chloro-5-(4-(((2,4-dichlorobenzyl)(2-methyl-3-((methylsulfonyl)amino)phenyl)amino)methyl)phenoxy)phenoxy)acetic acid], the inhibition at 1.7 µM amounted to 97.4%.
The figure for `Cc1c(NS(C)(=O)=O)cccc1N(Cc1ccc(Oc2ccc(Cl)c(OCC(=O)O)c2)cc1)Cc1ccc(Cl)cc1F` [Example 310, (2-chloro-5-(4-(((4-chloro-2-fluorobenzyl)(2-methyl-3-((methylsulfonyl)amino)phenyl)amino)methyl)phenoxy)phenoxy)acetic acid] is 97.5%.
To `Cc1c(NS(C)(=O)=O)cccc1N(Cc1ccc(Oc2ccc(Cl)c(OCC(=O)O)c2)cc1)Cc1ccc(F)cc1Cl` [Example 311, (2-chloro-5-(4-(((2-chloro-4-fluorobenzyl)(2-methyl-3-((methylsulfonyl)amino)phenyl)amino)methyl)phenoxy)phenoxy)acetic acid] belongs 97.4%; to `Cc1c(NS(C)(=O)=O)cccc1N(Cc1ccc(Oc2ccc(Cl)c(OCC(=O)O)c2)cc1)Cc1ccc(Cl)cc1Br` [Example 312, (5-(4-(((2-bromo-4-chlorobenzyl)(2-methyl-3-((methylsulfonyl)amino)phenyl)amino)methyl)phenoxy)-2-chlorophenoxy)acetic acid], 97.3%.
The figure for `Cc1c(NS(C)(=O)=O)cccc1N(Cc1ccc(Oc2ccc(Cl)c(OCC(=O)O)c2)cc1)Cc1ccc(F)c(F)c1` [Example 313, (2-chloro-5-(4-(((3,4-difluorobenzyl)(2-methyl-3-((methylsulfonyl)amino)phenyl)amino)methyl)phenoxy)phenoxy)acetic acid] is 96.3%; for `Cc1c(NS(C)(=O)=O)cccc1N(Cc1ccc(Oc2ccc(Cl)c(OCC(=O)O)c2)cc1)Cc1ccc(C(=O)c2ccccc2)cc1` [Example 314, (5-(4-(((4-benzoylbenzyl)(2-methyl-3-((methylsulfonyl)amino)phenyl)amino)methyl)phenoxy)-2-chlorophenoxy)acetic acid] it is 96.6%.
Turning to `Cc1c(NS(C)(=O)=O)cccc1N(Cc1ccc(Oc2ccc(Cl)c(OCC(=O)O)c2)cc1)Cc1ccc(Br)cc1F` [Example 315, (5-(4-(((4-bromo-2-fluorobenzyl)(2-methyl-3-((methylsulfonyl)amino)phenyl)amino)methyl)phenoxy)-2-chlorophenoxy)acetic acid], the inhibition at 1.7 µM was found to be 97%.
The figure for `Cc1c(NS(C)(=O)=O)cccc1N(Cc1ccc(Oc2ccc(Cl)c(OCC(=O)NCC(=O)O)c2)cc1)Cc1ccc(F)cc1F` [Example 316, N-((2-chloro-5-(4-(((2,4-difluorobenzyl)(2-methyl-3-((methylsulfonyl)amino)phenyl)amino)methyl)phenoxy)phenoxy)acetyl)glycine] is 96.3%; for `Cc1c(NS(C)(=O)=O)cccc1N(Cc1ccc(Oc2ccc(Cl)c(OCC(=O)NCCC(=O)O)c2)cc1)Cc1ccc(F)cc1F` [Example 317, N-((2-chloro-5-(4-(((2,4-difluorobenzyl)(2-methyl-3-((methylsulfonyl)amino)phenyl)amino)methyl)phenoxy)phenoxy)acetyl)-beta-alanine] it is 96.5%.

Values taken from patent US6583180B2, “Glucocorticoid receptor modulators” (Abbott Laboratories, priority 2001, dated 2003).
